“Also recorded” adds a separate entry of the source.
Experiments:
[1] = tested on: acetylcholinesterase (AChE); experiment: standard Abcam fluorescent AChE assay in a microplate (plate reader); format: biochemical; conditions: human tears; microtiter plate format
Excerpt: In addition, we performed side-by-side measurements of a series of samples including the human sample matrices and recombinantly expressed AChE with the SpinDx assay and with a traditional assay including a microtiter plate and plate reader (FIG. 7A-7B). The two assay formats show similar trends in the levels of activity, although certain samples (e.g., unkilled CSF) look dramatically higher in SpinDx than in the plate format.

[2] = tested on: acetylcholinesterase (AChE); experiment: SpinDx pulldown AChE activity assay in human sample matrices with or without inhibition by paraoxon; format: biochemical; conditions: pooled human tears, acetylthiocholine fluorogenic substrate
Excerpt: For this reason, we developed a SpinDx-based assay to provide information on (non-specific) inhibition of cholinesterase (ChE), such that the SpinDx test at a minimum provides information similar to that which can be obtained with the existing Test-mate ChE test, but in a simpler, more portable format. The term “SpinDx-based assay,” as used herein, refers to a bead-based assay format that employs a centrifugal microfluidic disc for transporting such beads (e.g., as described in FIG. 1A-1B and FIG. 3A-3D).
Our SpinDx assay can include components for a fluorescent analog of the Ellman's assay, loaded within the density medium. Upon spinning the disk, the capture beads, but not the blood sample or erythrocytes, will partition into the density medium. […]
We tested the assay extensively in buffer prior to translating to human bodily fluids, using either heat or paraoxon to inhibit the AChE cholinesterase activity. We determined that, in buffer, our limit of detection (LOD) for AChE with the SpinDx assay was between 0.005 and 0.01 mU/mL, with a limit of quantitation (LOQ) of 0.015 to 0.024 mU/mL, depending on the time of incubation (shorter incubations actually gave lower limits of detection and quantitation, perhaps because the fluorogenic assay inherently has a slow signal generation over time due to spontaneous hydrolysis of the substrate). […]

With CCOP(=O)(OCC)Oc1ccc([N+](=O)[O-])cc1 [paraoxon] the “reduction (kill) of apparent AChE activity by inhibitor” value [1] was “can't be killed” and the “reduction (kill) of cholinesterase activity by inhibitor” value [2] was “could not be reduced; also recorded: can't be killed”.

Reference: patent publication US11680946B1, “Detection of cholinesterase inhibition with microfluidic devices and systems thereof” (priority 2020, dated 2023)
